Patent US20240218022A1, “ANTI-VISTA MACROCYCLIC PEPTIDES AND COMPOSITIONS” (BRISTOL-MYERS SQUIBB COMPANY, priority 2022, published 2024)
Where two headings read alike, the source gives them in different places. Values belong to the compound of their own block, whether it stands above or below them. Starred links: 1 amine or outer side, 2 acyl side, 3 side chain; linkers in the order of their positions; H or OH if unused. Positions of bridges follow the written chain, without caps; N, C: chain ends. Non-standard residues stand in square brackets, D forms with d. Residues, ends and D or L forms follow the SMILES beside them. γGlu = O=C(O)[C@H](CCC(=O)[*:2])N[*:1]; 2Nal = N[C@@H](Cc1ccc2ccccc2c1)C(=O)O; βAsp = O=C(O)[C@H](CC(=O)[*:2])N[*:1]; Tic = O=C(O)[C@@H]1Cc2ccccc2CN1; Cit = NC(=O)NCCC[C@H](N)C(=O)O; NMeL = CN[C@@H](CC(C)C)C(=O)O; Ahp(2) = CCCCC[C@H](N)C(=O)O; NMeNle = CCCC[C@H](NC)C(=O)O; Tle = CC(C)(C)[C@H](N)C(=O)O; NHexGly = CCCCCCNCC(=O)O; Nle = CCCC[C@H](N)C(=O)O; Orn = NCCC[C@H](N)C(=O)O; Aun = NCCCCCCCCCCC(=O)O; Dab = NCC[C@H](N)C(=O)O; AEEA = NCCOCCOCC(=O)O

Biological target: T1, mouse VISTA (mVISTA) (Mus musculus, UniProt Q9D659)
T1 construct: expressed in transfected cells; host or cells: Human embryonic kidney 293T cells
T1 sequence (Q9D659 33-308): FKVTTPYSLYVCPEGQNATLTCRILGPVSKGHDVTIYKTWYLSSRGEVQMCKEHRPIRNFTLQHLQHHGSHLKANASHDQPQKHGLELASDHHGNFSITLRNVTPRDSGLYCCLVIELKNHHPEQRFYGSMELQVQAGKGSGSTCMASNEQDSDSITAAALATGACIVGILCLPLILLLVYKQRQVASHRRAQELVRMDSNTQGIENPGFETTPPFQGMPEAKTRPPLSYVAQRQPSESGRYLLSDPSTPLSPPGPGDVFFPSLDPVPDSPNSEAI
Experiment: Cell-Based Binding High-Content Assay For mVISTA (HC CBA mVISTA)
Procedure, shortened: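 293T cells expressing mouse VISTA, with compounds added either after seeding ("no wash") or before seeding and then washed out after 1 h. Biotinylated peptide 2 nM for 30 min at room temperature, then detection with Alexa 647–streptavidin. After fixation with Hoechst stain, plates were high-content imaged; IC50 from four-parameter logistic fit.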

[1] = cell-based binding high-content assay, read-out: HC CBA miPrISTA IC50

Compound: CCCCCCN1CC(=O)N[C@@H](Cc2ccc(O)cc2)C(=O)N[C@@H](CC(C)C)C(=O)N[C@@H](CC(N)=O)C(=O)N[C@@H](CCCN)C(=O)N(C)[C@@H](CCCC)C(=O)N[C@@H](CCCCC)C(=O)N2CCC[C@H]2C(=O)N[C@@H](C(C)(C)C)C(=O)N[C@@H](CO)C(=O)N[C@H](C(=O)NCCOCCOCC(=O)N[C@@H](CCC(=O)NCCOCCOCC(=O)NCCCCCCCCCCC(=O)O)C(=O)O)CSCC(=O)N[C@@H](Cc2ccccc2)C(=O)N[C@@H](Cc2c[nH]c3ccccc23)C(=O)N[C@@H](CC(=O)O)C1=O [compound 2280] ({CH2CO}-FWD[NHexGly]YLN[Orn][NMeNle][Ahp(2)]P[Tle]SC[AEEA][γGlu][AEEA][Aun]-OH; thioether N-14)
IC50 (read-out: HC CBA mVISTA IC50): 45.5 nM

Compound: CCCCCCN1CC(=O)N[C@@H](Cc2ccc(O)cc2)C(=O)N[C@@H](CC(C)C)C(=O)N[C@@H](CC(N)=O)C(=O)N[C@@H](CCCNC(=N)N)C(=O)N(C)[C@@H](CCCC)C(=O)N[C@@H](CCCCC)C(=O)N2CCC[C@H]2C(=O)N[C@@H](C(C)(C)C)C(=O)N[C@@H](C(C)C)C(=O)N[C@H](C(=O)NCCOCCOCC(=O)N[C@@H](CCC(=O)NCCOCCOCC(=O)NCCCCCCCCCCC(=O)O)C(=O)O)CSCC(=O)N[C@@H](Cc2ccccc2)C(=O)N[C@@H](Cc2c[nH]c3ccccc23)C(=O)N[C@@H](CC(=O)O)C1=O [compound 2281] ({CH2CO}-FWD[NHexGly]YLNR[NMeNle][Ahp(2)]P[Tle]VC[AEEA][γGlu][AEEA][Aun]-OH; thioether N-14)
IC50 (read-out: HC CBA mVISTA IC50): 31.3 nM

Compound: CCCCCCN1CC(=O)N[C@@H](Cc2ccc(O)cc2)C(=O)N[C@@H](CC(C)C)C(=O)N[C@@H](CC(N)=O)C(=O)N[C@@H](CCCN)C(=O)N(C)[C@@H](CCCC)C(=O)N[C@@H](CCCCC)C(=O)N2CCC[C@H]2C(=O)N[C@@H](C(C)(C)C)C(=O)N[C@@H](C(C)C)C(=O)N[C@H](C(=O)NCCOCCOCC(=O)N[C@@H](CCC(=O)NCCOCCOCC(=O)NCCCCCCCCCCC(=O)O)C(=O)O)CSCC(=O)N[C@@H](Cc2ccccc2)C(=O)N[C@@H](Cc2c[nH]c3ccccc23)C(=O)N[C@@H](CC(=O)O)C1=O [compound 2282] ({CH2CO}-FWD[NHexGly]YLN[Orn][NMeNle][Ahp(2)]P[Tle]VC[AEEA][γGlu][AEEA][Aun]-OH; thioether N-14)
IC50 (read-out: HC CBA mVISTA IC50): 34.9 nM

Compound: CCCCCCN1CC(=O)N[C@@H](Cc2ccc(O)cc2)C(=O)N[C@@H](CC(C)C)C(=O)N[C@@H](CC(N)=O)C(=O)N[C@@H](CCCN)C(=O)N(C)[C@@H](CCCC)C(=O)N[C@@H](CCCCC)C(=O)N2CCC[C@H]2C(=O)N[C@@H](C(C)(C)C)C(=O)N[C@@H](CC(=O)O)C(=O)N[C@H](C(=O)NCCOCCOCC(=O)N[C@@H](CCC(=O)NCCOCCOCC(=O)NCCCCCCCCCCC(=O)O)C(=O)O)CSCC(=O)N[C@@H](Cc2ccccc2)C(=O)N[C@@H](Cc2c[nH]c3ccccc23)C(=O)N[C@@H](CC(=O)O)C1=O [compound 2283] ({CH2CO}-FWD[NHexGly]YLN[Orn][NMeNle][Ahp(2)]P[Tle]DC[AEEA][γGlu][AEEA][Aun]-OH; thioether N-14)
IC50 (read-out: HC CBA mVISTA IC50): 27.8 nM

Compound: CCCCCCN1CC(=O)N[C@@H](Cc2ccc(O)cc2)C(=O)N[C@@H](CC(C)C)C(=O)N[C@@H](CC(N)=O)C(=O)N[C@@H](CCCNC(=N)N)C(=O)N[C@@H](CC(C)C)C(=O)N[C@@H](CCCCC)C(=O)N2CCC[C@H]2C(=O)N[C@@H](C(C)C)C(=O)N[C@@H](CO)C(=O)N[C@H](C(=O)NCCOCCOCC(=O)N[C@@H](CC(=O)O)C(=O)NCCOCCOCC(=O)NCCCCCCCCCCC(=O)O)CSCC(=O)N[C@@H](Cc2ccccc2)C(=O)N[C@@H](Cc2ccc(O)cc2)C(=O)N[C@@H](CC(=O)O)C1=O [compound 2285] ({CH2CO}-FYD[NHexGly]YLNRL[Ahp(2)]PVSC[AEEA]D[AEEA][Aun]-OH; thioether N-14)
IC50 [1]: 15.2 nM

Other lines, results leading:

IC50 [1]: 18.2 nM
Compound: CCCCCCN1CC(=O)N[C@@H](Cc2ccc(O)cc2)C(=O)N[C@@H](CCCCC)C(=O)NCC(=O)N[C@@H](CCCNC(=N)N)C(=O)N[C@@H](CC(C)C)C(=O)N[C@@H](CCCCC)C(=O)N2CCC[C@H]2C(=O)N[C@@H](C(C)C)C(=O)N[C@@H](CO)C(=O)N[C@H](C(=O)NCCOCCOCC(=O)N[C@@H](CC(=O)O)C(=O)NCCOCCOCC(=O)NCCCCCCCCCCC(=O)O)CSCC(=O)N[C@@H](Cc2ccccc2)C(=O)N[C@@H](Cc2ccc(O)cc2)C(=O)N[C@@H](CC(=O)O)C1=O [compound 2292] ({CH2CO}-FYD[NHexGly]Y[Ahp(2)]GRL[Ahp(2)]PVSC[AEEA]D[AEEA][Aun]-OH; thioether N-14)

IC50 [1]: 25.7 nM
Compound: CCCCCCN1CC(=O)N[C@@H](Cc2ccc(O)cc2)C(=O)N[C@@H](CCCC)C(=O)N[C@@H](CC(N)=O)C(=O)N[C@@H](CCCNC(=N)N)C(=O)N(C)[C@@H](CCCC)C(=O)N[C@@H](CCCCC)C(=O)N2CCC[C@H]2C(=O)N[C@@H](C(C)C)C(=O)N[C@@H](CC(=O)O)C(=O)N[C@H](C(=O)NCCOCCOCC(=O)N[C@@H](CC(=O)O)C(=O)NCCOCCOCC(=O)NCCCCCCCCCCC(=O)O)CSCC(=O)N[C@@H](Cc2ccccc2)C(=O)N[C@@H](Cc2c[nH]c3ccccc23)C(=O)N[C@@H](CC(=O)O)C1=O [compound 2293] ({CH2CO}-FWD[NHexGly]Y[Nle]NR[NMeNle][Ahp(2)]PVDC[AEEA]D[AEEA][Aun]-OH; thioether N-14)

IC50 [1]: 21.2 nM
Compound: CCCCCCN1CC(=O)N[C@@H](Cc2ccc(O)cc2)C(=O)N[C@@H](CCCCC)C(=O)NCC(=O)N[C@@H](CCCNC(N)=O)C(=O)N[C@@H](CC(C)C)C(=O)N[C@@H](CCCCC)C(=O)N2CCC[C@H]2C(=O)N[C@@H](C(C)C)C(=O)N[C@@H](CO)C(=O)N[C@H](C(=O)NCCOCCOCC(=O)N[C@@H](CC(=O)O)C(=O)NCCOCCOCC(=O)NCCCCCCCCCCC(=O)O)CSCC(=O)N[C@@H](Cc2ccccc2)C(=O)N[C@@H](Cc2ccc(O)cc2)C(=O)N[C@@H](CC(=O)O)C1=O [compound 2307] ({CH2CO}-FYD[NHexGly]Y[Ahp(2)]G[Cit]L[Ahp(2)]PVSC[AEEA]D[AEEA][Aun]-OH; thioether N-14)

IC50 [1]: 14.6 nM
Compound: CCCCCCN1CC(=O)N[C@@H](Cc2ccc(O)cc2)C(=O)N[C@@H](C(C)C)C(=O)NCC(=O)N[C@@H](CCCNC(N)=O)C(=O)N[C@@H](CC(C)C)C(=O)N[C@@H](CCCCC)C(=O)N2CCC[C@H]2C(=O)N[C@@H](C(C)C)C(=O)N[C@@H](CC(=O)O)C(=O)N[C@H](C(=O)NCCOCCOCC(=O)N[C@@H](CC(=O)O)C(=O)NCCOCCOCC(=O)NCCCCCCCCCCC(=O)O)CSCC(=O)N[C@@H](Cc2ccc3ccccc3c2)C(=O)N[C@@H](Cc2ccc(O)cc2)C(=O)N[C@@H](CC(=O)O)C1=O [compound 2308] ({CH2CO}-[2Nal]YD[NHexGly]YVG[Cit]L[Ahp(2)]PVDC[AEEA]D[AEEA][Aun]-OH; thioether N-14)

IC50 [1]: 28.1 nM
Compound: CCCCCCN1CC(=O)N[C@@H](Cc2ccc(O)cc2)C(=O)N[C@@H](CCCC)C(=O)N[C@@H](CC(N)=O)C(=O)N[C@@H](CCCNC(=N)N)C(=O)N(C)[C@@H](CC(C)C)C(=O)N[C@@H](CCCCC)C(=O)N2CCC[C@H]2C(=O)N[C@@H](C(C)C)C(=O)N[C@@H](CO)C(=O)N[C@H](C(=O)NCCOCCOCC(=O)N[C@@H](CC(=O)O)C(=O)NCCOCCOCC(=O)NCCCCCCCCCCC(=O)O)CSCC(=O)N[C@@H](Cc2ccc3ccccc3c2)C(=O)N[C@@H](Cc2ccc(O)cc2)C(=O)N[C@@H](CC(=O)O)C1=O [compound 2313] ({CH2CO}-[2Nal]YD[NHexGly]Y[Nle]NR[NMeL][Ahp(2)]PVSC[AEEA]D[AEEA][Aun]-OH; thioether N-14)

IC50 [1]: 18.3 nM
Compound: CCCCCCN1CC(=O)N[C@@H](Cc2ccc(O)cc2)C(=O)N[C@@H](CCCC)C(=O)N[C@@H](CC(N)=O)C(=O)N[C@@H](CCCNC(N)=O)C(=O)N2Cc3ccccc3C[C@H]2C(=O)N[C@@H](CCCCC)C(=O)N2CCC[C@H]2C(=O)N[C@@H](C(C)C)C(=O)N[C@@H](CO)C(=O)N[C@H](C(=O)NCCOCCOCC(=O)N[C@@H](CC(=O)O)C(=O)NCCOCCOCC(=O)NCCCCCCCCCCC(=O)O)CSCC(=O)N[C@@H](Cc2ccc3ccccc3c2)C(=O)N[C@@H](Cc2ccc(O)cc2)C(=O)N[C@@H](CC(=O)O)C1=O [compound 2315] ({CH2CO}-[2Nal]YD[NHexGly]Y[Nle]N[Cit][Tic][Ahp(2)]PVSC[AEEA]D[AEEA][Aun]-OH; thioether N-14)

IC50 [1]: 25.1 nM
Compound: CCCCCCN1CC(=O)N[C@@H](Cc2ccc(O)cc2)C(=O)N[C@@H](CCCC)C(=O)N[C@@H](CC(N)=O)C(=O)N[C@@H](CCCNC(N)=O)C(=O)N(C)[C@@H](CCCC)C(=O)N[C@@H](CCCCC)C(=O)N2CCC[C@H]2C(=O)N[C@@H](C(C)C)C(=O)N[C@@H](CO)C(=O)N[C@H](C(=O)NCCOCCOCC(=O)N[C@@H](CC(=O)O)C(=O)NCCOCCOCC(=O)NCCCCCCCCCCC(=O)O)CSCC(=O)N[C@@H](Cc2ccc3ccccc3c2)C(=O)N[C@@H](Cc2ccc(O)cc2)C(=O)N[C@@H](CC(=O)O)C1=O [compound 2319] ({CH2CO}-[2Nal]YD[NHexGly]Y[Nle]N[Cit][NMeNle][Ahp(2)]PVSC[AEEA]D[AEEA][Aun]-OH; thioether N-14)

IC50 (cell-based binding high-content assay, read-out: HC CBA mVISTA IC50): 22.4 nM
Compound: CCCCCCN1CC(=O)N[C@@H](Cc2ccc(O)cc2)C(=O)N[C@@H](CC(C)C)C(=O)N[C@@H](CC(N)=O)C(=O)N[C@@H](CCCNC(=N)N)C(=O)N(C)[C@@H](CCCC)C(=O)N[C@@H](CCCCC)C(=O)N2CCC[C@H]2C(=O)N[C@@H](C(C)(C)C)C(=O)N[C@@H](CC(=O)O)C(=O)N[C@H](C(=O)N[C@@H](CC(=O)NCCOCCOCC(=O)N[C@@H](CCN)C(=O)NCCOCCOCC(=O)NCCCCCCCCCCC(=O)O)C(=O)O)CSCC(=O)N[C@@H](Cc2ccccc2)C(=O)N[C@@H](Cc2ccc(O)cc2)C(=O)N[C@@H](CC(=O)O)C1=O [compound 2329] ({CH2CO}-FYD[NHexGly]YLNR[NMeNle][Ahp(2)]P[Tle]DC[βAsp][AEEA][Dab][AEEA][Aun]-OH; thioether N-14)
